Data on 5 compounds can be found in PMC12195740, “Discovery of Novel Imidazothiazole-Based Hydroxamic Acid Derivatives as Potent Indoleamine 2,3-Dioxygenase 1 and Histone Deacetylase 6 Dual Inhibitors” (Molecules, 2025).

The structures appear in SMILES notation.

One series concerns the target HDAC4 (Homo sapiens, UniProt P56524). The experiment in a line: HDAC isoform selectivity assay, HDAC4. The conditions noted are these: read-out: HDAC4 % inhibition rate at 10 μM. The series is classed as biochemical.
The test system of the next series is MDA-MB-231 cells. The series can be described thus: Cell viability (MTT) assay, MDA-MB-231. The conditions noted are these: Homo sapiens, MDA-MB-231, 48 h, read-out: Antiproliferative IC50, MDA-MB-231.
Another series concerns the target HDAC1 (Homo sapiens, UniProt Q13547). The series can be described thus: HDAC isoform selectivity assay, HDAC1. Type of series: biochemical.
Another series relates to SW480 cells. The series can be described thus: Cell viability (MTT) assay, SW480. The settings on record: Homo sapiens, SW480, 48 h, read-out: Antiproliferative IC50, SW480.
The next series addresses T1, rhIDO1 (Homo sapiens, UniProt P14902).
T1 construct: purchased
The experiment in a line: IDO1 inhibition assay. Type of series: biochemical. The conditions noted are these: means ± S.D. of three independent experiments. As to the method: Section S1. Biological assays […]
Section S 1.2 IDO1 inhibition assays
IDO1 inhibition assays were carried out according to the manufacturers’ procedures, as described previously. The standard assay mixture (100 μL) contained 50 mM of potassium phosphate buffer (pH = 6.5), 10 mM ascorbate, 10 μM methylene blue, 100 μg/mL catalase, 1 mM L-tryptophan and 10 μg/mL of rhIDO1. The plate was incubated at 37 °C in a dark environment, and reactions were terminated after 60 min by the addition of 50 μL of fluorogenic developer solution and further incubated at 45 °C in dark for 3 h. Then, the plate was allowed to cool to room temperature for at least 1 h. After centrifugation at 1500g for 5 min at 20 °C, the fluorescence […]
M1000 Pro, Tecan US, Morrisville, NC) in an end-point mode. […]

A further series deals with MCF-7 cells. The series can be described thus: Cell viability (MTT) assay, MCF-7. The settings on record: Homo sapiens, MCF7, 48 h, read-out: Antiproliferative IC50, MCF-7.
The next series addresses T2, HDAC11 (Homo sapiens, UniProt Q96DB2).
T2 sequence (Q96DB2 1-347): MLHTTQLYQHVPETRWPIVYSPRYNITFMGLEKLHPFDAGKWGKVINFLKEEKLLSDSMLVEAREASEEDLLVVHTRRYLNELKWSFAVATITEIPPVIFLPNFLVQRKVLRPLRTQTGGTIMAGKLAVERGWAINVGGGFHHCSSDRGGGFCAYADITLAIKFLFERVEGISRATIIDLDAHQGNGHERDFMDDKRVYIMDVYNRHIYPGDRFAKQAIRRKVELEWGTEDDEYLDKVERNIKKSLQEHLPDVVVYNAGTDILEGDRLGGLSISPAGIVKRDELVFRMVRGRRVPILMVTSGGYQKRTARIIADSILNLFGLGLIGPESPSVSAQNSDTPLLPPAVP
The series can be described thus: HDAC isoform selectivity assay, HDAC11. The series is classed as biochemical.

For the next series, the system named is HCT-116 cells. The series can be described thus: Cell viability (MTT) assay, HCT-116. The conditions noted are these: Homo sapiens, HCT-116, 48 h, read-out: Antiproliferative IC50, HCT-116.
Series [1] deals with T3, HDAC6 human recombinant enzyme (Homo sapiens, UniProt Q9UBN7).
T3 sequence (Q9UBN7 1-1215): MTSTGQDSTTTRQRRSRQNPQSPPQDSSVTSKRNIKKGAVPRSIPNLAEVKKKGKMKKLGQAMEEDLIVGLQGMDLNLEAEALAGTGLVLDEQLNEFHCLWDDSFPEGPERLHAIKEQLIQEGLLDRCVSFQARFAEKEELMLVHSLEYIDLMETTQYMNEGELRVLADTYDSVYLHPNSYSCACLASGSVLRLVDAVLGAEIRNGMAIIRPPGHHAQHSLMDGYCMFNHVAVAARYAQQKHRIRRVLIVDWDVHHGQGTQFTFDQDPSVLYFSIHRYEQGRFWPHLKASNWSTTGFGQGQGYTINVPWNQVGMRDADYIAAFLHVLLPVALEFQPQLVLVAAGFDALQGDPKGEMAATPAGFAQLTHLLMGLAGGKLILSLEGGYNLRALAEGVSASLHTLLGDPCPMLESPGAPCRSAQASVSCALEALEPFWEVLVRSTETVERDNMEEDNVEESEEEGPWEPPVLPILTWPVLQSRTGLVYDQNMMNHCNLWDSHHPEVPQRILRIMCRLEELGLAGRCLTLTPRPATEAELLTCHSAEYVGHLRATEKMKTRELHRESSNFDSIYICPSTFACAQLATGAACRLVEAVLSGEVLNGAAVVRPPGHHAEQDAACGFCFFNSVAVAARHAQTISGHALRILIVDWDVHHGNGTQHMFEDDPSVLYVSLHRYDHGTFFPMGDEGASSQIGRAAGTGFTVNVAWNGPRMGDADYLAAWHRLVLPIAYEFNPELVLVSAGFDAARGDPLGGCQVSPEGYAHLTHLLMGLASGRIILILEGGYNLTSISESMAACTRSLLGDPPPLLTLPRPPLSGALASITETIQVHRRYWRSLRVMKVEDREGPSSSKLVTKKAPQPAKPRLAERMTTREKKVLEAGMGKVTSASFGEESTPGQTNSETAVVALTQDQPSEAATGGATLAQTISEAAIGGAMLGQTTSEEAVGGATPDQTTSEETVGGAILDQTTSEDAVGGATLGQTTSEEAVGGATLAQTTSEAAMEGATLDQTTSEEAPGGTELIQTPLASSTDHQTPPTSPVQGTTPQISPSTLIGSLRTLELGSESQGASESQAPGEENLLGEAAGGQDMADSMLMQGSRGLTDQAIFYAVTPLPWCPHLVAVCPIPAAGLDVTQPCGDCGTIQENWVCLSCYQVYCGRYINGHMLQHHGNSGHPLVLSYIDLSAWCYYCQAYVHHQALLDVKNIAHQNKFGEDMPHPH
The series can be described thus: HDAC6 enzyme inhibitory activity assay. The series is classed as biochemical. The settings on record: for inhibition at 1 µM: read-out: HDAC6 Inhibition Rate at 1 μM. As to the method: Section S1. Biological assays
Section S 1.1. HDAC6 enzyme inhibitory activity assay
Preparation of Master Mix. Trichostatin A in DMSO, Fluorogenic HDAC substrate 3, and HDAC6 human recombinant enzyme were diluted to 20 μM, 200 μM, and 7 ng/uL, respectively, using HDAC Assay Buffer.BSA was dissolved in 1 mL of distilled water to make a BSA solution at a concentration of 1 mg/mL. A certain amount of Fluorogenic HDAC substrate 3, BSA and HDAC Assay Buffer were mixed well to make a master mix, and 40 μL of the master mix was added to each well of a 96-well plate. In the drug administration group, 5 μL of Trichostatin A in DMSO and HDAC6 human recombinant enzyme were added to each well. 5 μL of HDAC Assay Buffer and HDAC6 human recombinant enzyme were added to each well of the blank group, and incubated for 30 min at 37 °C. Finally, 50 μL of undiluted HDAC substrate 3, BSA and HDAC Assay Buffer were added to each well. 50 μL of 2x HDAC Developer was added to each well and incubated at room temperature for 15 min. The samples were read in an enzyme marker with an excitation wavelength in the range of 350-380 nm and an emission light in the range of 440-460 nm.
The values of fluorescence intensities were read and the inhibition rate and IC50 were calculated. […]

Details of series [2]: method as in PMID 32815366. The conditions noted are these: cell line not given; cited from earlier work.
Series [3] in a line: Cell viability assay, HK2 normal renal cells. The conditions noted are these: human.
Text: On the basis of the IDO1 and HDAC activities, we explored the proliferation inhibitory activities of the selected compounds against four solid tumor cells lines.

T1 sequence (P14902 whole entry): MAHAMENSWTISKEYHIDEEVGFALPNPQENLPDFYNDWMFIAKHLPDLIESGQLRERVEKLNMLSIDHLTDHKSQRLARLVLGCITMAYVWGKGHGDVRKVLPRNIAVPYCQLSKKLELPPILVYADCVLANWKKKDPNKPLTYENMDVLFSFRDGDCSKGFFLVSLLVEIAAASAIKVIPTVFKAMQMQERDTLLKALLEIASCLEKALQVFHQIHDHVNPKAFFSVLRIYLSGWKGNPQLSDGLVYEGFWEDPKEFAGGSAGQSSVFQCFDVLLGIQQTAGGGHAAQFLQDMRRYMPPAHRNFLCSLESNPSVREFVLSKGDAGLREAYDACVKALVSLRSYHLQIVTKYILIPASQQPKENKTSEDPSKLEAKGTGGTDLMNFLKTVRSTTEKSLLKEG
Chain of HDAC4 (P56524 whole entry, species assumed, canonical isoform): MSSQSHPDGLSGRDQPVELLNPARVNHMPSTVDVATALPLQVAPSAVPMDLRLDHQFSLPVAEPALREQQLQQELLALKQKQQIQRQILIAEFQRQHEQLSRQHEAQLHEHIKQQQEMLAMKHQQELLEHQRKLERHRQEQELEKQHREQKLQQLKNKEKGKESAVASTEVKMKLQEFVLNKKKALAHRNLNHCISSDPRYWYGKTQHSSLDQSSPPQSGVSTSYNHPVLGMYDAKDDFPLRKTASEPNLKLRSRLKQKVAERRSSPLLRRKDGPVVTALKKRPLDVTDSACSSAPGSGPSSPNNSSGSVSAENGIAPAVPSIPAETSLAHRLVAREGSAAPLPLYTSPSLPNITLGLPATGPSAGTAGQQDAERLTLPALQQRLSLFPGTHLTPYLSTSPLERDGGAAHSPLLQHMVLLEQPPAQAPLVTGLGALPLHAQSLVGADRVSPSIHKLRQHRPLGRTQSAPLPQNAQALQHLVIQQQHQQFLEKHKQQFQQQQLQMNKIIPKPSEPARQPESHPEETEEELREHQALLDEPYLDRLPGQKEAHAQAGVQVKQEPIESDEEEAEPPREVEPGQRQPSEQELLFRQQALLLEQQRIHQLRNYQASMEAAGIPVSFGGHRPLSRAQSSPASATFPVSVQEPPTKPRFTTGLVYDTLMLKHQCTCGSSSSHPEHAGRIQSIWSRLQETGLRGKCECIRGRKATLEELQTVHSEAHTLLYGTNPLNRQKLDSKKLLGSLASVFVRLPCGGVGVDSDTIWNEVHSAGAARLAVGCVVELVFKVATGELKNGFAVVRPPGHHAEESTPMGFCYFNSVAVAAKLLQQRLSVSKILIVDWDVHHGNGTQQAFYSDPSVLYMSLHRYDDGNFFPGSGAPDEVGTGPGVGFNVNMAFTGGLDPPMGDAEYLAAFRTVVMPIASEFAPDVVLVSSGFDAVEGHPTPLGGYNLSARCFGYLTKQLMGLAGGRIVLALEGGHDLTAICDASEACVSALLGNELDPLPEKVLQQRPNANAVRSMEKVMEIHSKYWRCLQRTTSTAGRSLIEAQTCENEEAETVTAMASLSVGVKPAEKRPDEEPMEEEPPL
Chain of HDAC1 (Q13547 whole entry, species assumed, canonical isoform): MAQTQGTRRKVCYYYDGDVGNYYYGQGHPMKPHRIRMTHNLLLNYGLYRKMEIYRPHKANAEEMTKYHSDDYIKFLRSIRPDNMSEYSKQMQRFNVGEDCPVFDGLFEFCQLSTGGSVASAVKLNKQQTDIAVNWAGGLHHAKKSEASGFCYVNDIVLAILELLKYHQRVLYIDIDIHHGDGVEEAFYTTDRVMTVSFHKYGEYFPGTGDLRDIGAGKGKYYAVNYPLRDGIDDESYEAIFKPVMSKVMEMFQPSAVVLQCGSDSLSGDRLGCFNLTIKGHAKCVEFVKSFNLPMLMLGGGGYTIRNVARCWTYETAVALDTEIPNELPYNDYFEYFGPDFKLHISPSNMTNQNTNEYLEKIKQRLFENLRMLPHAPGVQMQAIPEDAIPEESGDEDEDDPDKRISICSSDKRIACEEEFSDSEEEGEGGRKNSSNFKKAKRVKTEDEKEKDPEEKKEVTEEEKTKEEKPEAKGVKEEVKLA
Experimental for HCT-116 cells: Section S 1.3 Cell viability assays
(§1) Cell Bank at the Chinese Academy of Sciences.
(§2) DMEM and FBS were obtained from Gibco-Thermo (BRL Co. Ltd., USA).
(§3) another 48 h. The cells were stained with 10 μl of MTT at incubator for approximately 4 h. The medium was discarded and replaced by 100 mL DMSO. The O.D. value was read at 570/630 nm with a spectrophotometer.
Experimental for MCF-7 cells: Section S 1.3 Cell viability assays
as §1, §2, §3
Experimental for MDA-MB-231 cells: Section S 1.3 Cell viability assays
as §1, §2, §3
Experimental for SW480 cells: Section S 1.3 Cell viability assays
as §1, §2, §3

Turning to `O=C(NO)c1ccc(CNC(=O)c2cnc3scc(-c4ccc(Br)cc4)n23)cc1` [Compound 7a, 3-(4-Bromophenyl)-N-[4-(hydroxycarbamoyl)benzyl]imidazo[2,1-b]thiazole-5-carboxamide], the inhibition (as a rule, the share of the control response that was lost under treatment) at 10 µM at HDAC4 came out at 31.5%. For the same compound, the concentration for half-maximal inhibition (IC50) – broadly, the concentration that inhibits the measured activity by half – in the series with MDA-MB-231 cells was greater than 80 µM; at HDAC1, 2.45 µM; with SW480 cells, greater than 80 µM; against rhIDO1, 0.53 ± 0.11 µM; in the series with MCF-7 cells it was greater than 80 µM; against HDAC11, 6.06 µM. Besides, the half-inhibitory concentration (IC50) is greater than 80 µM in the series with HCT-116 cells and 0.0844 µM in series [1]. In addition, the “Selectivity Index (SI) = HDAC1 IC50 value/HDAC6 IC50 value” in [1] is 29.00. Also, the inhibition at 1 µM in [1] is 85.6%.
On to `NCc1ccc(NC(=O)N(CCCCO)Cc2ccc(C(=O)NO)cc2)cc1` [Suprastat], for which the “concentration at which cytotoxicity begins” value in [2] is greater than 25 µM.
As for `Cc1ccc(-c2csc3ncc(C(=O)Nc4ccc(NCCCCCCC(=O)NO)cc4)n23)cc1` [Compound 10k, N-{4-[(7-(hydroxyamino)-7-oxoheptyl)amino]phenyl}-3-(p-tolyl)imidazo[2,1-b]thiazole-5-carboxamide], the values for the inhibition at 10 µM at HDAC4 and on HDAC11 (read-out: HDAC11 % inhibition rate at 10 μM) were 9.68% and 29.8%, respectively. Moreover, the IC50 was greater than 80 µM in the series on MDA-MB-231 cells; 1.19 µM against HDAC1; greater than 80 µM in the series with SW480 cells; 0.16 ± 0.03 µM against rhIDO1; greater than 80 µM in the series with MCF-7 cells; greater than 80 µM in the series with HCT-116 cells. The IC50 in series [1] is 0.391 µM. Moreover, in [1], the “Selectivity Index (SI) = HDAC1 IC50 value/HDAC6 IC50 value” is listed as 3.04. Moreover, the inhibition at 1 µM in [1] amounted to 70.7%.
On to `CCCCN(Cc1ccc(C(=O)NO)cc1)C(=O)Nc1ccccc1` [NextA], for which, in series [2], the “concentration at which cytotoxicity begins” value was 10 µM.
Regarding `O=C(O)c1cnc2scc(-c3ccc(Br)cc3)n12` [5a], the IC50 is greater than 80 µM in the series with MDA-MB-231 cells; greater than 80 µM with SW480 cells; 6.52 ± 0.45 µM against rhIDO1; greater than 80 µM in the series with MCF-7 cells; greater than 80 µM in series [3]; greater than 80 µM with HCT-116 cells.
